Laboratory results taken from the NIST ThermoML archive (doi:10.1021/je0601457).

Experiment: xn = mol fraction of the nth substance listed

Cc1nccnc1C [2,3-dimethylpyrazine] + O=C=O
Fluid (supercritical or subcritical phases), Linear displacement technique
Conditions	mass density [kg/m3]
328.55 K, 14100 kPa, x1 = 0.291	857
328.55 K, 15620 kPa, x1 = 0.01	757
328.55 K, 16930 kPa, x1 = 0.291	859
329.65 K, 6660 kPa, x1 = 0.565	912
329.65 K, 8240 kPa, x1 = 0.565	914
329.65 K, 14590 kPa, x1 = 0.565	919
329.75 K, 12170 kPa, x1 = 0.033	656
329.75 K, 12970 kPa, x1 = 0.033	684
329.75 K, 14310 kPa, x1 = 0.033	713
329.75 K, 16930 kPa, x1 = 0.033	765
329.85 K, 12860 kPa, x1 = 0.108	845
329.85 K, 14590 kPa, x1 = 0.108	855
329.85 K, 19000 kPa, x1 = 0.108	879
330.35 K, 11790 kPa, x1 = 0.157	902
330.35 K, 14240 kPa, x1 = 0.157	919
330.35 K, 17550 kPa, x1 = 0.157	937
331.65 K, 11550 kPa, x1 = 0.086	645
331.65 K, 12210 kPa, x1 = 0.057	762
331.65 K, 12830 kPa, x1 = 0.057	785
331.65 K, 14030 kPa, x1 = 0.086	676
331.65 K, 15620 kPa, x1 = 0.086	689
331.65 K, 19380 kPa, x1 = 0.057	886
332.85 K, 12790 kPa, x1 = 0.049	767
332.85 K, 14620 kPa, x1 = 0.049	811
332.85 K, 15690 kPa, x1 = 0.049	834
333.95 K, 5520 kPa, x1 = 0.736	855
333.95 K, 12830 kPa, x1 = 0.736	858
333.95 K, 19520 kPa, x1 = 0.736	858
335.15 K, 12970 kPa, x1 = 0.027	605
335.15 K, 13550 kPa, x1 = 0.027	633
335.15 K, 14590 kPa, x1 = 0.027	668
338.75 K, 11790 kPa, x1 = 0.184	860
338.75 K, 14170 kPa, x1 = 0.184	874
338.75 K, 16720 kPa, x1 = 0.184	886
340.75 K, 12790 kPa, x1 = 0.108	786
340.75 K, 14030 kPa, x1 = 0.108	810
340.75 K, 17340 kPa, x1 = 0.108	837
340.75 K, 20170 kPa, x1 = 0.108	858
341.25 K, 10790 kPa, x1 = 0.01	327
341.95 K, 8900 kPa, x1 = 0.433	918
341.95 K, 12340 kPa, x1 = 0.433	926
341.95 K, 17480 kPa, x1 = 0.433	934
341.95 K, 23830 kPa, x1 = 0.433	945
343.15 K, 13410 kPa, x1 = 0.057	679
343.15 K, 14660 kPa, x1 = 0.057	719
343.15 K, 16170 kPa, x1 = 0.057	750
343.25 K, 14210 kPa, x1 = 0.033	585
343.25 K, 14930 kPa, x1 = 0.033	615
343.25 K, 16340 kPa, x1 = 0.033	657
345.05 K, 14100 kPa, x1 = 0.049	698
345.05 K, 15410 kPa, x1 = 0.049	745
345.05 K, 17240 kPa, x1 = 0.049	791
345.85 K, 15140 kPa, x1 = 0.086	626
345.85 K, 15900 kPa, x1 = 0.086	638
347.05 K, 11760 kPa, x1 = 0.291	853
347.05 K, 14070 kPa, x1 = 0.291	855
347.05 K, 18860 kPa, x1 = 0.291	857
347.65 K, 8210 kPa, x1 = 0.565	895
347.65 K, 11830 kPa, x1 = 0.565	901
347.65 K, 18520 kPa, x1 = 0.565	907
347.85 K, 12690 kPa, x1 = 0.184	828
347.85 K, 13450 kPa, x1 = 0.184	837
347.85 K, 15690 kPa, x1 = 0.184	853
348.35 K, 9900 kPa, x1 = 0.433	906
348.35 K, 15140 kPa, x1 = 0.433	917
348.35 K, 23070 kPa, x1 = 0.433	931
350.75 K, 14660 kPa, x1 = 0.108	747
350.75 K, 15690 kPa, x1 = 0.108	766
350.75 K, 17410 kPa, x1 = 0.108	790
352.25 K, 14550 kPa, x1 = 0.057	618
352.25 K, 16340 kPa, x1 = 0.057	678
352.25 K, 18760 kPa, x1 = 0.057	731
354.15 K, 16900 kPa, x1 = 0.157	847
354.15 K, 19280 kPa, x1 = 0.157	865
354.15 K, 25210 kPa, x1 = 0.157	904
355.25 K, 14550 kPa, x1 = 0.049	608
355.25 K, 15410 kPa, x1 = 0.049	652
355.25 K, 17280 kPa, x1 = 0.049	702
357.15 K, 13760 kPa, x1 = 0.433	897
357.15 K, 17310 kPa, x1 = 0.433	905
357.15 K, 21970 kPa, x1 = 0.433	914
358.65 K, 12930 kPa, x1 = 0.291	848
358.65 K, 15410 kPa, x1 = 0.291	852
358.65 K, 20590 kPa, x1 = 0.291	855
360.55 K, 6970 kPa, x1 = 0.736	846
360.55 K, 11100 kPa, x1 = 0.736	850
360.55 K, 17970 kPa, x1 = 0.736	853
362.95 K, 16930 kPa, x1 = 0.086	561
362.95 K, 17410 kPa, x1 = 0.086	574
362.95 K, 19410 kPa, x1 = 0.086	604
365.05 K, 16480 kPa, x1 = 0.057	573
365.05 K, 18310 kPa, x1 = 0.057	636
365.05 K, 20170 kPa, x1 = 0.057	679
365.05 K, 23210 kPa, x1 = 0.057	725
365.55 K, 19340 kPa, x1 = 0.184	818
365.55 K, 24520 kPa, x1 = 0.184	848
365.55 K, 45000 kPa, x1 = 0.184	900
368.45 K, 17140 kPa, x1 = 0.108	690
368.45 K, 19480 kPa, x1 = 0.108	731
368.45 K, 25100 kPa, x1 = 0.108	791
368.45 K, 34900 kPa, x1 = 0.108	848
371.85 K, 15900 kPa, x1 = 0.027	402
371.85 K, 17140 kPa, x1 = 0.027	432
373.25 K, 16720 kPa, x1 = 0.049	558
373.25 K, 17900 kPa, x1 = 0.049	605
373.25 K, 20100 kPa, x1 = 0.049	667
373.55 K, 9210 kPa, x1 = 0.565	867
373.55 K, 12380 kPa, x1 = 0.565	873
373.55 K, 18520 kPa, x1 = 0.565	883
374.25 K, 17410 kPa, x1 = 0.086	507
374.25 K, 18100 kPa, x1 = 0.086	521
374.25 K, 18900 kPa, x1 = 0.086	540
375.05 K, 18100 kPa, x1 = 0.033	466
375.05 K, 19410 kPa, x1 = 0.033	499
375.05 K, 20690 kPa, x1 = 0.033	526
375.85 K, 20590 kPa, x1 = 0.157	805
375.85 K, 23340 kPa, x1 = 0.157	829
375.85 K, 26520 kPa, x1 = 0.157	856
380.65 K, 12760 kPa, x1 = 0.433	852
380.65 K, 16100 kPa, x1 = 0.433	861
380.65 K, 21660 kPa, x1 = 0.433	876
381.45 K, 15210 kPa, x1 = 0.291	831
381.45 K, 15690 kPa, x1 = 0.291	830
381.45 K, 21340 kPa, x1 = 0.291	841

Liquid, linear displacement
Conditions	mass density [kg/m3]
328.55 K, x1 = 0.291	855
329.65 K, x1 = 0.565	909
329.75 K, x1 = 0.033	560
329.85 K, x1 = 0.108	822
330.35 K, x1 = 0.157	884
331.65 K, x1 = 0.057	719
331.65 K, x1 = 0.086	627
332.85 K, x1 = 0.049	708
333.95 K, x1 = 0.736	854
338.75 K, x1 = 0.184	852
340.75 K, x1 = 0.108	771
341.95 K, x1 = 0.433	915
343.15 K, x1 = 0.057	639
345.05 K, x1 = 0.049	638
345.85 K, x1 = 0.086	579
347.05 K, x1 = 0.291	852
347.65 K, x1 = 0.565	893
347.85 K, x1 = 0.184	826
348.35 K, x1 = 0.433	902
350.75 K, x1 = 0.108	725
354.15 K, x1 = 0.157	814
357.15 K, x1 = 0.433	886
358.65 K, x1 = 0.291	848
360.55 K, x1 = 0.736	845
362.95 K, x1 = 0.086	530
365.55 K, x1 = 0.184	774
368.45 K, x1 = 0.108	663
373.55 K, x1 = 0.565	865
374.25 K, x1 = 0.086	490
375.85 K, x1 = 0.157	764
380.65 K, x1 = 0.433	848
381.45 K, x1 = 0.291	829
